Laboratory results as given in patent publication US4399137A, “6-Imidazol-1-yl-3-hydrazino-pyridazines, their preparation and antihypertensive use” (BASF Aktiengesellschaft, priority 1979, dated 1983).
Like-named read-outs stand apart in the source and are kept apart here.

Experiments:
mice = assay: Acute toxicity (LD 50), intraperitoneal administration; format: in vivo; settings: mice, intraperitoneal; dihydralazine = 1.00
Description: (§1) To determine the acute toxicity (LD 50), the substances were administered intraperitoneally to groups of 10 female NMRI mice (weighing 20-25 g each).
(§2) The LD 50 was computed (by Probit analysis) as the dose after which 50% of the animals died within 7 days.

[1] = as above; format: in vivo; settings: mouse, in vivo; for LD50 at 168 h: ip, mice, intraperitoneal, 50% of the animals died within 7 days
Description: as §1, §2

[2] = system: spontaneously hypertonic rats; assay: Anti-hypertensive action on spontaneously hypertonic rats (SHR), oral administration; format: in vivo, rat (Okamoto; settings: for ED20: Rattus norvegicus, dose which lowers systolic pressure by 20%, 2 hours after administration, read-out: Anti-hypertensive action ED 20%; for ED20 / Anti-hypertensive action R.E. (relative effectiveness): SHR, oral; for Anti-hypertensive action R.E. (relative effectiveness): dihydralazine = 1.00; for times as effective as dihydralazine: wake spontaneously hypertonic rats
Description: The anti-hypertensive action was determined on spontaneously hypertonic rats (Okamoto). The substances were administered orally to groups of from 4 to 8 male animals. Before, and 2 hours after, administration, the systolic blood pressure was measured on the tail of the rat by means of a piezoelectric crystal sensor. The ED 20 was determined, as the dose which lowers the systolic pressure by 20%, from the linear regression between the logarithm of the dose (mg/kg) and the relative lowering of blood pressure (Δ%), with due account taken of the values found with placebo-treated control animals.

narcotized rats = assay: Hypotensive action (blood pressure lowering) on narcotized rats, intravenous administration; format: in vivo, rat (Sprague Dawley); settings: for ED20: Rattus norvegicus, dose producing a 20% lowering of blood pressure, read-out: Hypotensive action ED 20%; for ED20 / Hypotensive action R.E. (relative effectiveness) / factor by which blood pressure-lowering doses are lower than the dihydralazine doses: narcotized rats; for ED20 / Hypotensive action R.E. (relative effectiveness): intravenous; for blood pressure-lowering properties (in words): general statement, no specific model named; for Hypotensive action R.E. (relative effectiveness): dihydralazine = 1.00; for factor by which blood pressure-lowering doses are lower than the dihydralazine doses: relative to dihydralazine
Description: The blood pressure was measured in the […]. The substance was administered into the jugular vein (using 1 ml/kg of an aqueous solution). The ED 20% was determined, as the dose producing a 20% lowering of blood pressure, from the linear regression between the logarithm of the dose (mg/kg) and the relative lowering of the blood pressure (Δ%).

[3] = LD 50 (mice, i.p.) relative to anti-hypertensive ED 20% (SHR, oral), read-out: Therapeutic range Q
[4] = ratio LD 50 / anti-hypertensive dose, read-out: toxic doses (LD 50) times as great as the anti-hypertensive doses

Row | SMILES | Toxicity R.E. (mice) | LD50 at 168 h [1] [mg/kg] | selectivity ratio [1, 3] | ED20 [2] [mg/kg] | Anti-hypertensive action R.E. (relative effectiveness) [2] | ED20 (narcotized rats) [mg/kg] | blood pressure-lowering properties (in words) (narcotized rats) | Hypotensive action R.E. (relative effectiveness) (narcotized rats) | times as effective as dihydralazine [2] | factor by which blood pressure-lowering doses are lower than the dihydralazine doses (narcotized rats) | selectivity ratio [1, 4]
1 | CCc1nccn1-c1ccc(NN=C(C)C)nn1 [Example 2 b, 3-(2-Isopropylidene-hydrazino)-6-(2-ethyl-imidazol-1-yl)-pyridazine] | 1.66 | 124 | 50.1 | 2.48 | 2.76 | 0.0464 | Particularly active | 1.84 | – | – | –
2 | Cc1nccn1-c1ccc(NN)nn1 [Example 1 a, 3-Hydrazino-6-(2-methyl-imidazol-1-yl)-pyridazine] | 1.06 | 193 | 137 | 1.41 | 4.86 | 0.031 | Particularly active | 2.75 | 4.9 | 2.8 | –
3 | NNc1nnc(NN)c2ccccc12 [Dihydralazine, dihydralazine, reference compound] | 1.00 | 206 | 30.1 | 6.85 | 1.00 | 0.0854 | – | 1.00 | – | – | 30
4 | CCc1nccn1-c1ccc(NN)nn1 [Example 1 c, 3-Hydrazino-6-(2-ethyl-imidazol-1-yl)-pyridazine] | 1.32 | 156 | 53.6 | 2.91 | 2.35 | 0.0638 | Particularly active | 1.34 | 2.4 | 1.3 | –
5 | CC(C)=NNc1ccc(-n2ccnc2C)nn1 [Example 2 a, 3-(2-Isopropylidene-hydrazino)-6-(2-methyl-imidazol-1-yl)-pyridazine] | 2.09 | 98.6 | 40.1 | 2.46 | 2.78 | 0.0464 | Particularly active | 1.84 | – | – | 40
